Assay [1] relates to immunologically stimulated human basophils. The assay can be described thus: Inhibition of histamine release from immunologically stimulated human basophils. In kind it is cell-based. The settings on record: 1 h; human basophils challenged with anti-IgE or antigen; 60 minutes at 37° C.; active if ED50 ≤48 μM; read-out: ED50 (concentration which causes a 50% inhibition of histamine release). How it is done: The novel compounds of this invention have been tested by the procedure of Lichtenstein, L. M. and Osler, A. G., J. Exp. Med., 120, 507-530 (1964), which evaluated the ability of compounds to inhibit mediator (histamine) release from immunologically stimulated human basophils.
Dissolve 140.3 g of sodium chloride, 7.45 g of potassium chloride and 74.5 g of Trizma-Tris Pre-Set, Reagent Grade, pH 7.6, at 25° C. (Sigma Chemical Co.) in sufficient water to give a final volume of 2 liters.
(Sigma Chemical Co.) (30 mg/ml)
Made to 0.75M and 0.5M respectively, with calcium chloride dihydrate and magnesium chloride hexahydrate.
A 10 ml portion of 10× Tris Buffer and 1.0 ml of human albumin are diluted to 100 ml with water.
A 10 ml portion of 10× Tris Buffer, 1.0 ml of human albumin, 0.8 ml of calcium stock and 0.2 ml of magnesium stock are diluted to 100 ml with water.
Behring Diagnostics (Generally used at […] final concentration).
Strength 1:100 (w:v) allergenic extract, Hollister-Stier Labs. Generally this is diluted 1:1000 to 1:10,000 (considering the vial as stock).
Intradermal solutions of intramuscular preparations for hyposensitization, Hollister-Stier Labs. The final concentration used is on the order of 1 PNU/ml.
Eighty milliliters of blood is withdrawn from subjects with known histamine release to anti-IgE, ragweed antigen or other specific allergen, using four 20 ml heparinized tubes. This 80 ml of blood is mixed with 20 ml of saline containing 0.6 g of dextrose and 1.2 g of dextran. The blood is allowed to sediment at room temperature in two 50 ml polycarbonate centrifuge tubes until a sharp interface develops between the red cells and plasma (60-90 minutes). The plasma (top) layer from each tube is withdrawn by pipet and transferred to respective 50 ml polycarbonate tubes. The plasma is centrifuged for 8 minutes at 110×G at 4° C. The supernatant is carefully poured off as completely as possible and the cell button is resuspended in 2-3 ml of Tris-A buffer using a silconized Pasteur pipet. The resuspension is accomplished by drawing the liquid gently in an out of the pipet, with the tip below the liquid, until and even suspension of cells is obtained. Sufficient Tris-A buffer is then added to bring the volume in the tube to about 45 ml and the tube is centrifuged at 110×G for 8 minutes at 4° C. The supernatant is poured off and the cell button is resuspended and centrifuged as described above. The supernatant is poured off and the cell button suspended in 2-3 ml of Tris-ACM buffer to make the final volume sufficient to allow addition to the reaction tubes.
Reaction tubes containing anti-IgE or antigens, either alone or with test compound in a total volume of 0.2 ml are prepared and placed in a 37° C. bath. The cells are warmed to 37° C. and frequently swirled to ensure and even suspension, while 1.0 ml aliquots are added to each reaction tube. The tubes are then incubated for 60 minutes at 37° C., vortexing the tubes gently every 15 minutes to keep the cells evenly suspended. When the reaction is complete, the tubes are centrifuged at 4° C. for 10 minutes at 1500 rpm to sediment the cells. One ml aliquots of supernatant are transferred to 12 mm by 75 mm polyethylene tubes and 0.2 ml of 8% perchloric acid is added to each tube. Blanks and totals are included in each test. The blanks have cells and all reagents except antigent or anti-IgE. The totals contain 0.24 ml of 8% perchloric acid, one ml of cells and 0.2 ml of buffer. […]

The target of the next assay is T1, Neutrophil Lipoxygenase (Cavia porcellus, UniProt A0A286X958).
T1 construct: peritoneal neutrophils derived from guinea pigs; endogenous in cells; host or cells: guinea pig peritoneal neutrophils
T1 sequence (A0A286X958 1-674): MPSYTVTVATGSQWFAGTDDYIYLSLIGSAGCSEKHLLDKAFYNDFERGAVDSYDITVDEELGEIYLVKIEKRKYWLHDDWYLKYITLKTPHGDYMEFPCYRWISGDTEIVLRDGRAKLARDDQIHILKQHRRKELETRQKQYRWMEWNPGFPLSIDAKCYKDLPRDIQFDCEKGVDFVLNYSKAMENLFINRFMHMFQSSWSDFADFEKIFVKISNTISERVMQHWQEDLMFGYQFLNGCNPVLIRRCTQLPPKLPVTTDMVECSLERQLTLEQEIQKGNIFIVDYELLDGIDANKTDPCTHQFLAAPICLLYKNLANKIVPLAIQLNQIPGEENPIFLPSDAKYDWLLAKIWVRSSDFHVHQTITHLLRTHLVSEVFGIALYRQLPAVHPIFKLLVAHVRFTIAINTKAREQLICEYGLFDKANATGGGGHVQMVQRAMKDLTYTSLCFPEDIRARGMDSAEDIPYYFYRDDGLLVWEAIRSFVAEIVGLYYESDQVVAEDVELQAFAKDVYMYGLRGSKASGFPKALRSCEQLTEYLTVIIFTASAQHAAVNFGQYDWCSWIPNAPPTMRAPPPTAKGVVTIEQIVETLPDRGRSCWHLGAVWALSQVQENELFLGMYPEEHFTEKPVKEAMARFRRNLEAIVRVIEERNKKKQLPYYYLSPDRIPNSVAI
As to the kind of experiment: Inhibition of neutrophil lipoxygenase (release and biosynthesis of LTB4 and 5-HETE) in guinea pig neutrophils. The settings on record: 10 μg/ml compound, 100 μM arachidonic acid and 20 μM calcium ionophore (A23187), the lower the percentage, the more active. In kind it is cell-based. How it is done: The ability of these compounds to inhibit lipoxygenase activity in terms of the suppression of the release and biosynthesis of leukotriene B4 (LTB4) and 5-hydroxyeicosatetraenoic acid (5-HETE) was measured as follows.
In this assay 3×10^7 peritoneal neutrophils derived from guinea pigs were incubated at 37° C. in Dulbeccos buffer containing 50 mM tris buffer (pH 7.4). Five minutes before the addition of 100 μM arachidonic acid and 20 μM calcium ionophore (A23187), control vehicle or the test compounds were added to the neutrophils at a concentration of 10 μg/ml.
Three minutes after the addition of arachidonic acid and calcium ionophore the total lipid was partitioned into chloroform after adjusting the pH to 3 with citric acid and the addition of equal parts of methanol and chloroform.
The 5-HETE and LTB4 were resolved by HPLC using a 5M, 4×25 cm octadecyl silica column (IBM Instruments) with 70-80% methanol in water adjusted to pH 3.0 with acetic acid. As the mobile phase was pumped at 1.0 ml/minute, LTB4 and 5-HETE were detected by absorbance at 270 and 236 nm, respectively.
LTB4 and 5-HETE were quantitated by comparison with the control and the results were expressed as a percent of control.

Where [2] appears, read: 5-HETE, read-out: 5-HETE, % of Control.
Setting [3] is: LTB4, read-out: LTB4, % of Control.

Our source for the IC50 and remaining activity values is patent US4742059A, “Substituted quinoxalinediones and their methods of use” (American Cyanamide Company, priority 1987, dated 1988).

Read-outs that look alike come from different tables or passages of the source.

As to `O=C1C(N2CCN(Cc3ccccc3)CC2)=CC(=O)c2ncccc21` [6-[4-(Phenylmethyl)-1-piperazinyl]-5,8-quinolinedione], the IC50 in assay [1] worked out at 12.1 µM.

As for `O=C1C=C(N2CCN(c3nc4ccccc4o3)CC2)C(=O)c2ncccc21` [7-[4-(2-Benzoxazolyl)-1-piperazinyl]-5,8-quinolinedione], the figures for the remaining activity at 10 µg/mL on Neutrophil Lipoxygenase (setting [2]) and on Neutrophil Lipoxygenase (setting [3]) were 22.7% and 35.8%, respectively.

In the case of `O=C1C=C(N2CCN(Cc3ccccc3)CC2)C(=O)c2nccnc21` [6[4-(Phenylmethyl)-1-piperazinyl]-5,8-quinoxalinedione], the remaining activity at 10 µg/mL on Neutrophil Lipoxygenase (setting [2]) was determined as 53.9%; at Neutrophil Lipoxygenase (setting [3]), 8%.

For `O=C1C(N2CCN(c3cccc(C(F)(F)F)c3)CC2)=CC(=O)c2ncccc21` [6-[4-[3-(Trifluromethyl)phenyl]-1-piperazinyl]-5,8-quinolinediones], the remaining activity at 10 µg/mL at Neutrophil Lipoxygenase (setting [2]) stood at 11.9%; at Neutrophil Lipoxygenase (setting [3]), 5.7%.

For `O=C1C=C(N2CCN(c3nc4ccccc4s3)CC2)C(=O)c2nccnc21` [6-[4-(2-Benzothiazoyl)-1-piperazinyl]-5,8-quinoxalinedione], the IC50 in assay [1] amounted to 1.2 µM. The remaining activity at 10 µg/mL at Neutrophil Lipoxygenase (setting [2]) came out at 67.2%; at Neutrophil Lipoxygenase (setting [3]) it was 8%.

For `O=C1C=C(N2CCN(c3cccc(C(F)(F)F)c3)CC2)C(=O)c2nccnc21` [6-[4-[3-(Trifluoromethyl)phenyl]-1-piperazinyl]-5,8-quinoxalinedione], in assay [1], the IC50 stood at 6.6 µM. Moreover, the results for the remaining activity at 10 µg/mL on Neutrophil Lipoxygenase (setting [2]) and on Neutrophil Lipoxygenase (setting [3]) were 1.6% and 0%, respectively.

Take `CCOC(=O)N1CCN(C2=CC(=O)c3ncccc3C2=O)CC1` [4-(5,8-Dihydro-5,8-dioxo-6-quinolyl)-1-piperazinecarboxylic acid ethyl ester]: the IC50 in assay [1] is 17.4 µM.

On to `O=C1C(N2CCN(c3nc4ccccc4o3)CC2)=CC(=O)c2ncccc21` [6-[4-(2-Benzoxazolyl)-1-piperazinyl]-5,8-quinolinedione], for which the remaining activity at 10 µg/mL on Neutrophil Lipoxygenase (setting [2]) came to 36.9%; on Neutrophil Lipoxygenase (setting [3]), 8%.

Consider `CCOC(=O)N1CCN(C2=CC(=O)c3nccnc3C2=O)CC1` [4-(5,8-dihydro-5,8-dioxo-6-quinoxalinyl)-1-piperazine carboxylic acid ethyl ester], for which, in assay [1], the IC50 was found to be 3.7 µM.
